Assay results: article PMC12386606, “Evaluation of the In Vitro Blood–Brain Barrier Transport of Ferula persica L. Bioactive Compounds” (International Journal of Molecular Sciences, 2025)
Where “and” joins values, the source holds several entries; their conditions need not be identical. Identical values can stand only once. Counter-ions that a name gives are not always drawn.

Key:
[1] = oil/water partition coefficient; Table 1; ref PubChem; cited from earlier work
[2] = Parallel artificial membrane permeability assay for the blood–brain barrier (PAMPA-BBB); details: for AerExt log Pe: compound within AerExt donor solution; for AerExt log Pe / RootExt log Pe: 37 °C, 4 h, PBS pH 7.4, n.q. = not quantified in the acceptor plate; for RootExt log Pe: compound within RootExt donor solution; for Papp at 4 h: PAMPA, pH 7.4; for AerExt Cross BBB Potential: compound within AerExt; for AerExt Cross BBB Potential / RootExt Cross BBB Potential: PAMPA-BBB; for RootExt Cross BBB Potential: compound within RootExt
Description: The permeability of bioactive compounds from AerExt and RootExt across the BBB was assessed using the PAMPA-BBB assay, following the methodology described by [11]. Firstly, the BBB solution was prepared by dissolving 8 mg of PBL and 4 mg of cholesterol in 600 μL of n-dodecane. The initial donor solution was prepared by mixing 1 mL of AerExt or RootExt (at 10 mg mL^−1 in EtOH) with 1 mL of buffer (PBS, pH = 7.4, 10 mM). The filter membrane of the donor plate was coated with 5 μL of BBB solution. The acceptor plate was filled with 350 μL of buffer, and the donor plate was carefully placed on top of the acceptor plate to form a “sandwich-like” assembly. Subsequently, 350 μL of the donor solution was added to the donor plate, which was then covered and incubated at 37 °C for 4 h in the dark. After the incubation time, 300 μL of the solution was collected from each plate, transferred into separate vials, and evaporated using a SpeedVac system at 40 °C under 13 mbar pressure. The dried acceptor and donor solutions were dissolved in 50 μL of pure EtOH before being subjected to HPLC-Q-TOF-MS/MS and GC-Q-TOF-MS analysis. Permeability (Pe) across the PAMPA-BBB of the bioactive compound was calculated according to Equation (1) [54], with modifications in concentration rates.Pe = −ln[1 − CA(t)/Cequilibrium]/(A × (1/VD + 1/VA) × t)(1)
Cequilibrium was calculated according to Equation (2):Cequilibrium = [CD(t) × VD + CA(t) × VA]/(VD + VA)(2)
The HPLC-MS and GC-MS chromatograms were processed using the Agilent Mass Hunter Qualitative software (version B.10.0) to verify the retention time and exact mass of the compounds previously reported by us [25] and to extract their peak area to calculate the BBB permeability.

[3] = system: HBMEC cells; test: Blood–brain barrier transport study in HBMEC Transwell monolayer; details: for AerExt Te (%) ± SD 2 h / AerExt Te (%) ± SD 4 h / AerExt Te (%) ± SD 24 h: AerExt 40 µg mL^−1 apical; for AerExt Te (%) ± SD 2 h / AerExt Te (%) ± SD 4 h / AerExt Te (%) ± SD 24 h / RootExt Te (%) ± SD 2 h / RootExt Te (%) ± SD 4 h / RootExt Te (%) ± SD 24 h: n.q. = not quantified in the basolateral compartment; for RootExt Te (%) ± SD 2 h / RootExt Te (%) ± SD 4 h / RootExt Te (%) ± SD 24 h: RootExt 20 µg mL^−1 apical; for crossing of the HBMEC-BBB: AerExt 40 µg mL^−1 / RootExt 20 µg mL^−1, 2, 4, 24 h; for abundance in the apical compartment relative to the basolateral compartment (times higher) / Te of newly formed sulfated metabolites: after AerExt 40 µg mL^−1 treatment of HBMEC; for Te of newly formed sulfated metabolites: tentatively identified metabolites; for AerExt Te (%) ± SD 24 h / RootExt Te (%) ± SD 24 h / Te of newly formed sulfated metabolites: 24 h
Description: After the toxicity evaluation, the HBMEC cell line was also used as a simplified in vitro model of the BBB endothelium. Cells were seeded at a density of 1.6 × 10^5 cells/cm^2 in 12-well Transwell® plates (Corning Costar Corp., Corning, USA) with a pore diameter of 0.4 μm, pre-coated with type I rat tail collagen (100 μg mL^−1) [55]. The culture medium was renewed every 2 days until a monolayer cell structure was formed (see Supplementary Figure S2), and transport experiments were initiated after 10 days. In transport experiments, the medium in the apical (upper) compartment of the Transwell system was removed, and 0.5 mL of AerExt or RootExt at a concentration of 40 μg mL^−1 and 20 μg mL^−1, respectively, was added to these compartments (applied in duplicate). Also, a medium containing 0.4% (v/v) ethanol was used as control group. The basolateral (lower) compartments were filled with 1.5 mL of fresh culture medium. The cells were incubated under these conditions for 2, 4, and 24 h.
At the end of the incubation periods, media samples were collected from both chambers and lyophilized using a freeze-drying system from Martin Christ (Osterode am Harz, Germany). The samples were stored at −80 °C until analysis. The collected samples were subjected to chemical analyses to evaluate the ability of bioactive compounds contained in the extracts to pass through the cell monolayer.
The transport efficiency (Te) of bioactive substances was calculated based on Equation (3), described by [56]:Te (%) = CLower/CUpper × 100(3)
This calculation was performed to understand whether the compound crosses the cell layer and how efficiently it is transported.
For this purpose, 0.2 mL of cold water (H2O) was added to the samples, and the samples were vortexed for 10 s. Then, 0.8 mL of cold methanol was added and vortexed again for 10 s. Then, the mixture was centrifuged at 14,000 rpm for 5 min, and the supernatant was carefully transferred to a 1.5 mL Eppendorf tube and dried in a SpeedVac device at 40 °C and 13 bar pressure. Finally, the dried samples were resuspended in 25 μL of pure ethanol for their subsequent analysis.
For HPLC-Q-TOF MS/MS analysis, aliquots of 2 μL were injected into an HPLC model 1290 coupled to a Q-TOF series 6540 (Agilent Technologies, Waldbronn, Germany). For GC-Q-TOF MS analysis, aliquots of 1 μL were injected with a split ratio of 1:10 into a GC model 7890B coupled to a Q-TOF series 7200 (Agilent Technologies, Waldbronn, Germany). The HPLC-MS and GC-MS chromatograms were processed using the Agilent Mass Hunter Qualitative software (version B.10.0) to verify the retention time and exact mass of the compounds previously reported by us [25] and to extract their peak area to calculate the BBB permeability.

CC(C)=CCCC(C)(O)[C@H]1CC[C@]2(C)[C@@H]1[C@H](O)C[C@@H]1[C@@]3(C)CC[C@H](O)C(C)(C)[C@@H]3CC[C@]12C (stereo in doubt) [Protopanaxadiol]
log p [1]: 7.2
AerExt log Pe [2]: n.q.
RootExt log Pe [2]: n.q.

COc1ccc(O)c(C=O)c1 [2-hydroxy-5-methoxybenzaldehyde]
log p [1]: 1.8
AerExt Te (%) ± SD 2 h [3]: 18.8 ± 2.3%
AerExt Te (%) ± SD 4 h [3]: 9.1 ± 1.2%
AerExt Te (%) ± SD 24 h [3]: 11.0 ± 1.3%
RootExt Te (%) ± SD 2 h [3]: 31.8 ± 8.0%
RootExt Te (%) ± SD 4 h [3]: 36.3 ± 10.9%
RootExt Te (%) ± SD 24 h [3]: 164.8 ± 21.0%

CC(=O)c1ccc(O)c(O)c1 [3,4-dihydroxyacetophenone]
log p [1]: 1.5
Papp at 4 h [2]: 17.4 ×10⁻⁶ cm/s

CC12CCC3C(CC3(C)C)C(C)(CCC1=O)O2 (stereo not drawn) [3,7-epoxycaryophyllan-6-One]
log p [1]: 2.8

O=Cc1cccc(C(=O)O)c1O [3-formylsalicylic acid]
log p [1]: 1.0
RootExt log Pe [2]: −5.50

O=C(/C=C/c1ccc(O)c(O)c1)OC1C(O)CC2(O)CC1OC2=O (stereo not drawn) [4-caffeoylquinic acid lactone]
log p [1]: 0.4
AerExt Cross BBB Potential [2]: + (log Pe < −6.5)

O=Cc1ccc(O)cc1 [4-hydroxybenzaldehyde]
AerExt Te (%) ± SD 2 h [3]: 23.3 ± 3.1%
AerExt Te (%) ± SD 4 h [3]: 18.5 ± 0.3%
AerExt Te (%) ± SD 24 h [3]: 49.4 ± 5.9%
RootExt Te (%) ± SD 2 h [3]: 62.1 ± 21.9%
RootExt Te (%) ± SD 4 h [3]: 57.5 ± 1.7%
RootExt Te (%) ± SD 24 h [3]: 184.6 ± 23.0%

Cc1ncsc1CCO [4-methyl-5-thiazoleethanol]
log p [1]: 0.8

O=c1ccc2cc(O)c(O)cc2o1 [6,7-dihydroxycoumarin]
log p [1]: 1.2
RootExt log Pe [2]: n.q.
RootExt Cross BBB Potential [2]: –

CC(=O)OC[C@H]1O[C@@H](Oc2cc(O)c3c(=O)c(-c4ccc(O)cc4)coc3c2)[C@H](O)[C@@H](O)[C@@H]1O [6″-O-acetylgenistin]
log p [1]: 0.9
AerExt log Pe [2]: n.q.

COc1cc2ccc(=O)oc2cc1O [7-hydroxy-6-methoxycoumarin]
log p [1]: 1.5
AerExt Te (%) ± SD 2 h [3]: 0.6 ± 0.2%
AerExt Te (%) ± SD 4 h [3]: 1.9 ± 0.1%
AerExt Te (%) ± SD 24 h [3]: 6.1 ± 1.5%
RootExt Te (%) ± SD 2 h [3]: n.q.
RootExt Te (%) ± SD 4 h [3]: n.q.
RootExt Te (%) ± SD 24 h [3]: n.q.

CC1=C[C@H]2[C@@H](CC1=O)[C@H](C)C[C@H](O)[C@H]2C(C)C [8-hydroxyageraphorone]
log p [1]: 2.9
AerExt Te (%) ± SD 2 h [3]: n.q.
AerExt Te (%) ± SD 4 h [3]: n.q.
AerExt Te (%) ± SD 24 h [3]: n.q.
RootExt Te (%) ± SD 2 h [3]: n.q.
RootExt Te (%) ± SD 4 h [3]: n.q.
RootExt Te (%) ± SD 24 h [3]: 124.7 ± 16.9%

C=C(C)C(O)CCC(C)C1CCC2(C)C3CCC4C(C)(C)C(O)CCC45CC35CCC12C (stereo not drawn) [9,19-cyclolanost-25-ene-3,24-diol]
log p [1]: 8.6
AerExt log Pe [2]: −5.60
AerExt Cross BBB Potential [2]: + (log Pe < −6.5)
RootExt log Pe [2]: −5.79
RootExt Cross BBB Potential [2]: + (log Pe < −6.5)

C=CC(C)(O)CC/C=C(\C)CCC=C(C)C (stereo not drawn) [(E)-nerolidol]
log p [1]: 4.6
AerExt log Pe [2]: n.q.
RootExt log Pe [2]: n.q.

C[C@@H]1CCCC2=CC[C@@H]3[C@@H](C3(C)C)[C@]21C [(–)-aristolene]
log p [1]: 4.7
AerExt log Pe [2]: n.q.
RootExt log Pe [2]: n.q.

C=C1CC[C@H]2O[C@]2(C)CC[C@@H]2[C@@H]1CC2(C)C [(–)-caryophyllene oxide]
log p [1]: 3.6
AerExt Te (%) ± SD 2 h [3]: 4.3 ± 0.1%
AerExt Te (%) ± SD 4 h [3]: 8.6 ± 0.6%
AerExt Te (%) ± SD 24 h [3]: 8.8 ± 0.7%
RootExt Te (%) ± SD 2 h [3]: n.q.
RootExt Te (%) ± SD 4 h [3]: n.q.
RootExt Te (%) ± SD 24 h [3]: n.q.

CC1=CCC[C@@H](C)[C@]12CC[C@@H](C(C)(C)O)C2 [Agarospirol]
log p [1]: 3.7
AerExt log Pe [2]: n.q.
RootExt log Pe [2]: n.q.

CC1=C2CCC(C)C2CC(C(C)(C)O)CC1 (stereo not drawn) [Bulnesol]
log p [1]: 3.8
AerExt log Pe [2]: n.q.
RootExt log Pe [2]: n.q.

COc1cc(-c2cc(=O)c3c(O)cc(O)cc3o2)ccc1O [Chrysoeriol]
log p [1]: 1.7
AerExt log Pe [2]: n.q.

COc1ccc(-c2cc(=O)c3c(O)cc(O)cc3o2)cc1O [Diosmetin]
log p [1]: 1.7
Papp at 4 h [2]: 148 ×10⁻⁶ cm/s

C=CCc1cc(OC)c(OC)c(OC)c1 [Elemicin]
log p [1]: 2.5

CCOC(=O)/C=C/c1ccc(O)c(O)c1 [Ethyl caffeate]
log p [1]: 2.6

COc1cc(/C=C/C(=O)O)ccc1O [Ferulic acid]
RootExt log Pe [2]: n.q.
AerExt Te (%) ± SD 2 h [3]: 1.9 ± 0.2%
AerExt Te (%) ± SD 2 h ([3]; listed as ferulic acid): 2%
AerExt Te (%) ± SD 4 h [3]: 1.9 ± 0.2%
AerExt Te (%) ± SD 24 h [3]: 19.8 ± 10.3%
AerExt Te (%) ± SD 24 h ([3]; listed as ferulic acid): 20%
RootExt Te (%) ± SD 2 h [3]: n.q.
RootExt Te (%) ± SD 4 h [3]: n.q.
RootExt Te (%) ± SD 24 h [3]: n.q.

COc1cc2ccc(=O)oc2c(O)c1OC [Fraxidin]
log p [1]: 1.5
AerExt log Pe [2]: −4.82
RootExt log Pe [2]: −4.81

CC(=O)OC(C)(C)[C@@H]1CC[C@H](C)C2=C(C1)[C@@H](C)CC2 [Guaiol acetate]
log p [1]: 3.6
AerExt log Pe [2]: n.q.
RootExt log Pe [2]: −5.05

C[C@H]1CC[C@@H](C(C)(C)O)CC2=C1CC[C@@H]2C [Guaiol]
log p [1]: 3.1
AerExt log Pe [2]: n.q.
RootExt log Pe [2]: n.q.

COc1cc2ccc(=O)oc2c(OC)c1O [Isofraxidin]
log p [1]: 1.5
AerExt Te (%) ± SD 2 h [3]: n.q.
AerExt Te (%) ± SD 4 h [3]: n.q.
AerExt Te (%) ± SD 24 h [3]: n.q.
RootExt Te (%) ± SD 2 h [3]: n.q.
RootExt Te (%) ± SD 4 h [3]: n.q.
RootExt Te (%) ± SD 24 h [3]: 30.5 ± 6.6%

O=c1c(OC2OC(CO)C(O)C(O)C2O)c(-c2ccc(O)c(O)c2)oc2cc(O)cc(O)c12 (stereo not drawn) [Isoquercetrin]
log p [1]: −0.2
AerExt log Pe [2]: n.q.
AerExt Cross BBB Potential [2]: –
RootExt log Pe [2]: n.q.
RootExt Cross BBB Potential [2]: –

CC(=O)O[C@@H]1[C@@H](OC(C)=O)[C@@H](O)[C@H](Oc2c(-c3ccc(O)cc3)oc3cc(O)cc(O)c3c2=O)O[C@H]1C [Kaempferol 3-O-(3″,4″-di-O-acetyl-a-L-rhamnopyranoside)]
log p [1]: −0.9
AerExt log Pe [2]: n.q.

CC1(C)C[C@H](O)C[C@@]2(C)OC(=O)C=C12 [Loliolide]
log p [1]: 1.0
AerExt Te (%) ± SD 2 h [3]: 6.2 ± 0.7%
AerExt Te (%) ± SD 4 h [3]: 12.1 ± 0.8%
AerExt Te (%) ± SD 24 h [3]: 12.4 ± 0.8%

O=c1cc(-c2ccc(O)c(O)c2)oc2cc(O[C@@H]3O[C@H](CO)[C@@H](O)[C@H](O)[C@H]3O)cc(O)c12 [Luteolin 7-glucoside]
log p [1]: 0.5
AerExt Cross BBB Potential [2]: + (log Pe < −6.5)
RootExt log Pe [2]: n.q.

O=c1cc(-c2ccc(O)c(O)c2)oc2cc(O)cc(O)c12 [Luteolin]
Papp at 4 h [2]: 26.3 ×10⁻⁶ cm/s
crossing of the HBMEC-BBB [3]: could not cross the HBMEC-BBB

C=CCc1cc(OC)c2c(c1)OCO2 [Myristicin]
log p [1]: 2.9
RootExt log Pe [2]: n.q.

c1ccc2c(c1)[nH]c1cnccc12 [Norharman]
log p [1]: 3.2
AerExt Te (%) ± SD 2 h [3]: 2.3 ± 0.1%
AerExt Te (%) ± SD 4 h [3]: 5.3 ± 1.4%
AerExt Te (%) ± SD 24 h [3]: 4.1 ± 0.2%

C[C@@H]1CC[C@H]2C(C(=O)O)=C[C@@H]3[C@@H](O)C(C)(C)C[C@@]132 [Pentalenic acid]
log p [1]: 2.7

O=Cc1ccc(O)c(O)c1 [Protocatechuic aldehyde]
log p [1]: 1.3
crossing of the HBMEC-BBB [3]: could not cross the HBMEC-BBB
AerExt Te (%) ± SD 2 h [3]: n.q.
AerExt Te (%) ± SD 4 h [3]: n.q.
AerExt Te (%) ± SD 24 h [3]: n.q.
RootExt Te (%) ± SD 2 h [3]: n.q.
RootExt Te (%) ± SD 4 h [3]: n.q.

O=C(O)[C@]1(O)C[C@@H](O)[C@@H](O)[C@H](O)C1 [Quinic acid]
log p [1]: −2.4
AerExt Cross BBB Potential [2]: + (log Pe < −6.5)

CC1CCCC2(C)CCC(C(C)(C)O)C=C12 (stereo not drawn) [Rosifoliol]
log p [1]: 3.9
AerExt log Pe [2]: n.q.
RootExt log Pe [2]: n.q.

CC1=CCC[C@]2(C)CCC(=C(C)C)C[C@@H]12 [Selina-3,7(11)-diene]
log p [1]: 4.4
AerExt log Pe [2]: n.q.
RootExt log Pe [2]: n.q.

COc1cc(/C=C/C(=O)O)ccc1OS(=O)(=O)O [ferulic acid sulfate]
abundance in the apical compartment relative to the basolateral compartment (times higher) [3]: ~40 times
Te of newly formed sulfated metabolites [3]: 2.3%

C=C(C)[C@@H]1CC[C@@]2(C)CCC(=O)C(C)=C2C1 [α-cyperone]
log p [1]: 3.8
AerExt Te (%) ± SD 2 h [3]: 12.2 ± 0.1%
AerExt Te (%) ± SD 4 h [3]: 25.1 ± 1.4%
AerExt Te (%) ± SD 24 h [3]: 56.5 ± 6.5%
RootExt Te (%) ± SD 2 h [3]: 15.4 ± 2.6%
RootExt Te (%) ± SD 4 h [3]: 20.1 ± 12.0%
RootExt Te (%) ± SD 24 h [3]: 187% and 187.3 ± 12.5%

apigenin sulfate
abundance in the apical compartment relative to the basolateral compartment (times higher) [3]: ~40 times
Te of newly formed sulfated metabolites [3]: 2.7%
